Test results taken from patent publication US20160176867A1, “MODIFIED BET-PROTEIN-INHIBITING DIHYDROQUINOXALINONES AND DIHYDROPYRIDOPYRAZINONES” (BAYER PHARMA AKTIENGESELLSCHAFT, priority 2013, published 2016).

Legend:
MOLM-13 cells = experiment: Cell proliferation assay (alamarBlue), MOLM-13; assay type: cell-based; conditions: Homo sapiens; MOLM-13 (acute myeloid leukaemia), 96 hours
Method: In accordance with the invention, the ability of the substances to inhibit cell proliferation was determined. Cell viability was determined by means of the alamarBlue® reagent (Invitrogen) in a Victor X3 Multilabel Reader (Perkin Elmer). The excitation wavelength was 530 nm and the emission wavelength […].
The MOLM-13 cells (DSMZ, ACC 554) were sown at a concentration of 4000 cells/well in 100 μl of growth medium (RPMI1640, 10% FCS) on 96-well microtitre plates.
After overnight incubation at 37° C., the fluorescence values were determined (CI values). Then the plates were treated with various substance dilutions (1E-5 M, 3E-6 M, 1E-6 M, 3E-7 M, 1E-7 M, 3E-8 M, 1E-8 M) and incubated at 37° C. over 96 hours (MOLM-13, B16F10, CHL-1 cells) or 120 hours (MOLP-8 cells). Subsequently, the fluorescence values were determined (CO values). For the data analysis, the CI values were subtracted from the CO values and the results were compared between cells which had been treated with various dilutions of the substance or only with buffer solution. The IC50 values (substance concentration needed for 50% inhibition of cell proliferation) were calculated therefrom.

[1] = target: T1, BRD4 bromo domain 1 [BRD4(1)] (Homo sapiens, UniProt O60885); experiment: BRD4/acetylated peptide H4 binding assay (TR-FRET), BRD4 bromo domain 1; conditions: inhibition of BRD4(1)/Ac-H4 peptide interaction
T1 construct: N-terminally His6-tagged BRD4(1) (amino acids 67-152); made in house; host or cells: E. coli
In short: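 TR-FRET (665/620 nm ratio) measuring displacement of biotinylated tetra-acetylated H4 peptide from His6-BRD4(1) (aa 67-152, E. coli; typically 10 nM) at pH 7.5. Compound (11 concentrations, 0.1 nM–20 μM, duplicates) was preincubated 10 min at 22°C, then 1 h at 22°C and ≥3 h at 4°C; IC50 from 4-parameter fit normalized to DMSO and no-BRD4 controls.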

| Compound | IC50 (MOLM-13 cells) | IC50 [1] |
| --- | --- | --- |
| C[C@@H]1C(=O)N(C)c2ccc(Nc3ccc4c(c3)S(=O)(=O)NC4)nc2N1C1CCOCC1 [Example 56, (3R)-6-[(1,1-dioxido-2,3-dihydro-1,2-benzothiazol-6-yl)amino]-1,3-dimethyl-4-(tetrahydro-2H-pyran-4-yl)-3,4-dihydropyrido[2,3-b]pyrazin-2(1H)-one] | 0.239 µM | 0.112 µM |
| COc1ccc(S(=O)(=O)N2CCN(C)CC2)cc1Nc1ccc2c(n1)N(C1CCOCC1)[C@H](C)C(=O)N2C [Example 40, (3R)-6-({2-methoxy-5-[(4-methylpiperazin-1-yl)sulphonyl]phenyl}-amino)-1,3-dimethyl-4-(tetrahydro-2H-pyran-4-yl)-3,4-dihydropyrido[2,3-b]pyrazin-2(1H)-one] | 0.098 µM | 0.043 µM |
| CC1C(=O)N(C)c2ccc(Nc3cccc(C(=O)NC4CCN(C)CC4)c3)nc2N1c1ccccc1 (racemic) [Example 104, 3-[(1,3-dimethyl-2-oxo-4-phenyl-1,2,3.4-tetrahydropyrido[2,3-b]pyrazin-6-yl)amino]-A-(1-methylpiperidin-4-yl)benzamide] | 1.44 µM | 0.956 µM |
| CC(C)N1c2nc(Nc3cccc(S(=O)(=O)N[C@H]4CC[C@H](N5CCN(CC6CC6)CC5)CC4)c3)ccc2N(C)C(=O)[C@H]1C [Example 34, N-{trans-4-[4-(cyclopropylmethyl)piperazin-1-yl]cyclohexyl}-3-{[(3R)-4-isopropyl-1,3-dimethyl-2-oxo-1,2,3,4-tetrahydropyrido[2,3-b]pyrazin-6-yl]amino}-benzenesulphonamide] | 0.055 µM | 0.023 µM |
| CC(C)N1c2nc(Nc3cccc(C(=O)N[C@H]4CC[C@H](N5CCN(CC6CC6)CC5)CC4)c3)ccc2N(C)C(=O)[C@H]1C [Example 79, N-{trans-4-[4-(cyclo-propylmethyl)piperazin-1-yl]cyclohexyl}-3-{[(3R)-4-isopropyl-1,3-dimethyl-2-oxo-1,2,3,4-tetrahydropyrido[2,3-b]pyrazin-6-yl]amino}benzamide] | 0.287 µM | 0.193 µM |
| C[C@@H]1C(=O)N(C)c2ccc(Nc3cccc(S(=O)(=O)N4CCOCC4)c3)nc2N1C1CCOCC1 [Example 9, (3R)-1,3-Dimethyl-6-{[3-(morpholin-4-ylsulphonyl)phenyl]amino}-4-(tetrahydro-2H-pyran-4-yl)-3,4-dihydropyrido[2,3-b]pyrazin-2(1H)-one] | 0.066 µM | 0.028 µM |
| C[C@@H]1C(=O)N(C)c2ccc(Nc3cccc(S(=O)(=O)N4CCN(C)CC4)c3)nc2N1C1CCN(C)CC1 [Example 50, (3R)-1,3-dimethyl-6-({3-[(4-methylpiperazin-1-yl)sulphonyl]phenyl}-amino)-4-(1-methyl-piperidin-4-yl)-3,4-dihydropyrido[2,3-b]pyrazin-2(1H)-one] | 0.213 µM | 0.076 µM |
| COc1ccc(S(=O)(=O)N2CC3(COC3)C2)cc1Nc1ccc2c(n1)N(C1CCOCC1)[C@H](C)C(=O)N2C [Example 30, (3R)-6-{[2-Methoxy-5-(2-oxa-6-azaspiro[3.3]hept-6-ylsulphonyl)phenyl]amino}-1,3-dimethyl-4-(tetrahydro-2H-pyran-4-yl)-3,4-dihydropyrido[2,3-b]pyrazin-2(1H)-one] | 0.152 µM | 0.044 µM |
| Cc1nnc(-c2cccc(Nc3ccc4c(n3)N(C3CCOCC3)[C@H](C)C(=O)N4C)c2)o1 [Example 134, (3R)-1,3-Dimethyl-6-{[3-(5-methyl-1,3,4-oxadiazol-2-yl)phenyl]amino}-4-(tetrahydro-2H-pyran-4-yl)-3,4-dihydropyrido[2,3-b]pyrazin-2(1H)-one] | 0.546 µM | 0.179 µM |
| COc1ccc(S(=O)(=O)N2CCN(C)CC2)cc1Nc1ccc2c(n1)N(C1CCN(C)CC1)[C@H](C)C(=O)N2C [Example 46, (3R)-6-({2-methoxy-5-[(4-methylpiperazin-1-yl)sulphonyl]phenyl}-amino)-1,3-dimethyl-4-(1-methylpiperidin-4-yl)-3,4-dihydropyrido[2,3-b]pyrazin-2(1H)-one] | 0.045 µM | 0.051 µM |
| C[C@@H]1C(=O)N(C)c2ccc(Nc3cccc(S(=O)(=O)NC4CC4)c3)nc2N1C1CCOCC1 [Example 26, N-Cyclopropyl-3-{[(3R)-1,3-dimethyl-2-oxo-4-(tetrahydro-2H-pyran-4-yl)-1,2,3,4-tetrahydropyrido[2,3-b]pyrazin-6-yl]amino}benzenesulphonamide] | 0.032 µM | 0.017 µM |
| C[C@@H]1C(=O)N(C)c2ccc(Nc3cccc(S(=O)(=O)N[C@H]4CC[C@H](N5CCN(CC6CC6)CC5)CC4)c3)nc2N1C1CCN(C(=O)OC(C)(C)C)CC1 [Example 52, tert-butyl 4-[(3R)-6-{[3-({trans-4-[4-(cyclo-propylmethyl)piperazin-1-yl]cyclohexyl}-sulphamoyl)phenyl]amino}-1,3-dimethyl-2-oxo-2,3-dihydropyrido[2,3-b]pyrazin-4(1H)-yl]piperidine-1-carboxylate] | 0.18 µM | 0.08 µM |
| C[C@@H]1C(=O)N(C)c2ccc(Nc3cccc(S(=O)(=O)N(C)C)c3)cc2N1C1CCOCC1 [Example 7, 3-{[(3R)-1,3-Dimethyl-2-oxo-4-(tetrahydro-2H-pyran-4-yl)-1,2,3,4-tetrahydroguinoxalin-6-yl]amino}-N,N-dimethylbenzenesulphonamide] | 0.149 µM | 0.046 µM |
| COc1ccc(CN2c3cc(Nc4cccc(S(=O)(=O)N(C)C)c4)ccc3N(C)C(=O)[C@H]2C)cc1 [Example 10, 3-{[(3R)-4-(4-Methoxybenzyl)-1,3-dimethyl-2-oxo-1,2,3,4-tetrahydroquinoxalin-6-yl]amino}-N,N-dimethylbenzenesulphonamide] | 0.233 µM | 0.159 µM |
| CC(C)N1c2nc(Nc3cccc(S(=O)(=O)NC4CCN(C)CC4)c3)ccc2N(C)C(=O)[C@H]1C [Example 51, 3-{[(3R)-4-isopropyl-1,3-dimethyl-2-oxo-1,2,3,4-tetrahydropyrido[2,3-b]pyrazin-6-yl]amino}-N-(1-methylpiperidin-4-yl)benzenesulphonamide] | 0.097 µM | 0.077 µM |
| C[C@@H]1C(=O)N(C)c2ccc(Nc3cccc(S(=O)(=O)N(C)C)c3)nc2N1C1CCN(C)CC1 [Example 41, 3-{[(3R)-1,3-dimethyl-4-(1-methylpiperidin-4-yl)-2-oxo-1,2,3,4-tetrahydropyrido[2,3-b]pyrazin-6-yl]amino}-N,N-dimethylbenzene-sulphonamide] | 0.022 µM | 0.02 µM |
| C[C@@H]1C(=O)N(C)c2ccc(N(C)c3cccc(S(=O)(=O)N(C)C)c3)nc2N1C1CCOCC1 [Example 54, 3-{[(3R)-1,3-dimethyl-2-oxo-4-(tetrahydro-2H-pyran-4-yl)-1,2,3,4-tetrahydropyrido[2,3-b]pyrazin-6-yl](methyl)-amino}-N,N-dimethyl-benzenesulphonamide] | 0.233 µM | 0.106 µM |
| C[C@@H]1C(=O)N(C)c2ccc(Nc3cccc(C(=O)NCCN(C)C)c3)nc2N1C1CCCC1 [Example 4, 3-{[(3R)-4-Cyclopentyl-1,3-dimethyl-2-oxo-1,2,3,4-tetrahydropyrido[2,3-b]pyrazin-6-yl]amino}-N-[2-(dimethylamino)ethyl]benzamide] | 0.535 µM | 0.144 µM |
| C[C@@H]1C(=O)N(C)c2ccc(Nc3cccc(S(=O)(=O)NC4CCN(C)CC4)c3)nc2N1C1CCCCCC1 [Example 48, 3-{[(3R)-4-cycloheptyl-1,3-dimethyl-2-oxo-1,2,3,4-tetrahydropyrido-[2,3-b]pyrazin-6-yl]amino}-N-(1-methylpiperidin-4-yl)benzenesulphonamide] | 0.24 µM | 0.075 µM |
| COc1ccc(C(=O)NC2CCN(C)CC2)cc1Nc1ccc2c(n1)N(C1CCOCC1)[C@H](C)C(=O)N2C [Example 16, 3-{[(3R)-1,3-Dimethyl-2-oxo-4-(tetrahydro-2H-pyran-4-yl)-1,2,3,4-tetrahydropyrido[2,3-b]pyrazin-6-yl]amino}-4-methoxy-N-(1-methylpiperidin-4-yl)benzamide] | 0.679 µM | 0.234 µM |
| C[C@@H]1C(=O)N(C)c2ccc(Nc3cccc(C(=O)NC4CN(C)C4)c3)nc2N1C1CCCC1 [Example 3, 3-{[(3R)-4-Cyclopentyl-1,3-dimethyl-2-oxo-1,2,3,4-tetrahydropyrido[2,3-b]pyrazin-6-yl]amino}-N-(1-methylazetidin-3-yl)benzamide] | 0.296 µM | 0.091 µM |
| C[C@@H]1C(=O)N(C)c2ccc(Nc3cccc(S(=O)(=O)N[C@H]4CC[C@H](N5CCN(CC6CC6)CC5)CC4)c3)nc2N1Cc1ccccc1 [Example 38, 3-{[(3R)-4-benzyl-1,3-dimethyl-2-oxo-1,2,3,4-tetrahydropyrido[2,3-b]pyrazin-6-yl]amino}-N-{trans-4-[4-(cyclopropyl-methyl)piperazin-1-yl]cyclohexyl}-benzenesulphonamide] | 0.02 µM | 0.019 µM |
